Assay results: patent publication US20210311061A1, “USE OF TROP-2 AS PREDICTIVE MARKER OF RESPONSE TO ANTI-TUMOR THERAPY BASED ON INHIBITORS OF CD9, AKT AND MOLECULES OF THE TETRASPANIN SIGNALLING NETWORK” (ONCOXX BIOTECH S.R.L., priority 2012, published 2021)

Legend:
[1] = system: Colo205 colon cancer cells; test: Xenografts in athymic nude mice, Colo205; conditions: 0.35 mg/mouse intraperitoneally every day, in vivo growth curves
Protocol: (§1) MTE 4-14 immortalized cell line transfected with Trop-2 (Alberti, Nutini et al. 1994), or Colo205 colon cancer cells, endogenously expressing Trop-2, were injected subcutaneously (4×10^6 cells/injection) into nude mice groups (8 weeks females, CD1-Foxn1 nu/nu mice (Charles River Laboratories, Calco, Lecco, Italy). MTE 4-14 cells transfected with Trop-2 were co-injected with Matrigel 1:3 vol/vol (growth factor reduced matrix, BD Biosciences, Franklin Lakes, N.J. USA). A stock solution of MK-2206 in DMSO was diluted at the time of use in apyrogenic saline solution, to a final concentration of 0.7 mg/ml, and the drug was administered intraperitoneally at a dose of 0.35 mg/mouse every day, starting from the time in which the tumors became palpable. Control group mice were treated with the vehicle alone. Mice were visually inspected every 5-7 days and the major and minor diameters of the experimental tumors were measured. The tumor volume was calculated using the formula for the volume of ellipsoid (Dxd2/2). MTE 4-14 cells transfected with the empty vector were not tumorigenic in this model. […]

[2] = system: MTE 4-14 cells transfected with Trop-2; test: Xenografts in athymic nude mice, MTE 4-14 transfected with Trop-2; conditions: MTE 4-14/Trop-2; 0.35 mg/mouse intraperitoneally every day; in vivo growth curves
Protocol: as §1

Akt = test: Western blot of Akt phosphorylation in MTE 4-14 transfectants with or without PMA; type: cell-based, murine
Protocol: Western blotting was performed as previously described (El Sewedy, Fornaro et al. 1998). In brief, cell lysates were analyzed by electrophoresis on denaturing polyacrylamide gel (SDS-PAGE) and transfered onto nitrocellulose filters. Filters were incubated with the relevant primary antibodies (Abcam, Cambridge, UK; Santa Cruz) in TBS with 5% non-fat dried milk. Hybridized filters were washed in TBS, 0.1% Tween-20. […] Signal intensity was quantified with NIH-image 1.62, using as reference a Kodak gray-scale standards power curve (www.kodak.com).

Trop-2 [3] = test: Precipitation of cholesterol from BRIJ lysate, precipitation of Trop-2; conditions: MTE4-14 cells transfected with Trop-2; Western blot, FIG. 3f
Protocol: Cells were also harvested by scraping and lysed in buffer with 1% BRIJ. The supernatant was mixed with either 1/10 (vol/vol) methanol (control) or 1/10 (vol/vol) 10% digitonin in methanol, and incubated on ice for 10 min. Cell membranes were recovered by centrifugation at 12,000 g for 15 min. The pellet was washed in cold acetone, resuspended in Laemmli buffer and analysed by Western blotting.

[4] = system: MTE 4-14 cells transfected with Trop-2; test: In vitro cell-growth assay, MTE 4-14 cells transfected with Trop-2; type: cell-based, murine; conditions: siRNA transfection, growth curves, FIG. 7d
Protocol: (§2) MTE 4-14 cells transfected with the empty vector or with Trop-2 were seeded at 1.5-3×10^3 cells/well in 96-well plates (five replica wells per data point). Cell numbers were quantified by the MTT colorimetric assay (Roche Molecular Biochemicals, Mannheim, Germany) or by staining with crystal violet. Cell numbers were normalised against a reference standard curve of serially diluted cell samples.
(§3) Cells were treated with 50-100-200-400 nM A6730_SIGMA (Sigma Technical Company, St Louis, Mo. 63178-9916) or with 400 nM MK-2206 (Selleck Chemicals, Houston, Tex.) to inhibit Akt. Stock solutions were prepared in DMSO and diluited in ethanol or water, with the final concentration of DMSO and ethanol never exceeding 0.1% and 1% respectively. Control cells received vehicle alone. A second treatment was performed 24 hours after seeding.
(§4) The corresponding constructs were transiently transfected into MTE 4-14 cells, and their effect on cell proliferation was evaluated. The levels of transcripts after silencing were quantified by real-time RT-PCR. siRNAs directed against irrelevant targets were used as negative controls, chosen after thorough verification of the absence of spurious effects on cell growth. […]

[5] = system: MTE 4-14 cells transfected with the empty vector; test: In vitro cell-growth assay, MTE 4-14 cells transfected with the empty vector; type: cell-based, murine; conditions: siRNA transfection, growth curves, FIG. 7d
Protocol: as §2, §3, §4

Trop-2 [6] = test: Depletion of cholesterol from cell membranes, release of Trop-2; type: cell-based; conditions: MTE4-14 cells transfected with Trop-2; 10 mM, 37° C., 45 min; Western blot, FIG. 3f
Protocol: To deplete cell membranes of cholesterol, intact cells were washed three times in PBS to remove serum and incubated in DMEM with 10 mM methyl-β-cyclodextrin at 37° C. for 45 min. Control cells were processed in parallel in the absence of methyl-β-cyclodextrin. Samples were centrifuged at 2000 g to remove cells and cell debris. Proteins in the supernatant were precipitated in trichloroacetic acid and analysed by Western blotting.

[7] = biological target: T1, Trop-2 (human, wild-type) (human, UniProt P09758 27-323); test: confocal microscopy of intact cells, co-capping and cell footprints, MTE 4-14 cells transfected with Trop-2
T1 construct: whole, on cells; Full-length protein expressed in cells (MTE 4-14 transfectants, MCF7); also called T2
T1 sequence (looked up): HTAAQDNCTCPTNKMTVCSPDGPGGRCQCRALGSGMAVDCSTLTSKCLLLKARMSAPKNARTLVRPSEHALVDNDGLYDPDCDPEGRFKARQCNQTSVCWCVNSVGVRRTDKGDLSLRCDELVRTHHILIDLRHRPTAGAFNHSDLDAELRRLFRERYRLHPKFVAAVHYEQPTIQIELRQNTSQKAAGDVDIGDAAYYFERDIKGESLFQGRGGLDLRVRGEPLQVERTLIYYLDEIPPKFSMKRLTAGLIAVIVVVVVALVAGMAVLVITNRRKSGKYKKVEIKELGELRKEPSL
Description: FIG. 3. Interaction of Trop-2 and PKCα with tetraspanin molecules and CD9. (a-d) Confocal microscopy analysis of intact cell membranes (a), membrane areas showing co-capping (b), footprints of cell membranes (c, d) of MTE 4-14 cells transfected with Trop-2 (a-c, d top) or with the empty vector (d bottom) stained simultaneously with anti-Trop-2 and anti-CD9 (member of tetraspanin webs) or anti-caveolin (negative control) (a-c) or anti-CD9 and anti PKCα (d) conjugated with fluorescent molecules. Areas of colocalization are indicated by arrowheads. (e) Co-immunoprecipitation (IP) of Trop-2, PKCα, CD9 and tetraspanins. Immunoprecipitation was performed using primary antibodies against murine CD9, CD81 and CD151 (MTE 4-14cells) or human CD9, CD82 and CD151 (MCF7 cells); the presence of Trop-2 and PKCα in immunoprecipites was detected by Western blot. IP with anti-Trop-2: positive control. (f) Trop-2/cholesterol association. Release of Trop-2 in the culture medium after treatment with methyl-β-cyclodextrin (MβCD) (left). Precipitation of Trop-2 with digitonin from BRIJ lysate (right). The treatments were performed on MTE4-14 cells transfected with Trop-2, and the presence of Trop-2 in the soluble and insoluble fractions was assessed by Western blot.

NC1(c2ccc(-c3nc4ccn5c(=O)[nH]nc5c4cc3-c3ccccc3)cc2)CCC1 [MK-2206]
Difference between control and treated tumors, P (two-way ANOVA) [1]: < 0.0001 | Difference between control and treated tumors, P (two-way ANOVA) [2]: < 0.0001

CCCCCCCCCCCCCC(=O)O[C@@H]1[C@@H](C)[C@@]2(O)[C@@H](C=C(CO)C[C@]3(O)C(=O)C(C)=C[C@@H]23)[C@@H]2C(C)(C)[C@]12OC(C)=O [PMA]
Akt-S473 phosphorylation (Akt; MTE 4-14 cells transfected with Trop-2, FIG. 6b): reduction, further increased by PMA | Akt-T308 phosphorylation levels (Akt; MTE 4-14 transfectants, FIG. 6b): no effect

C[C@@H]1CC[C@@]2(OC1)O[C@H]1[C@@H](O)[C@H]3[C@@H]4CC[C@H]5C[C@@H](O[C@@H]6O[C@H](CO)[C@H](O[C@@H]7O[C@H](CO)[C@@H](O)[C@H](O[C@@H]8OC[C@@H](O)[C@H](O)[C@H]8O)[C@H]7O[C@@H]7O[C@H](CO)[C@H](O)[C@H](O[C@@H]8O[C@H](CO)[C@@H](O)[C@H](O)[C@H]8O)[C@H]7O)[C@H](O)[C@H]6O)[C@H](O)C[C@]5(C)[C@H]4CC[C@]3(C)[C@H]1[C@@H]2C [digitonin]
precipitation of Trop-2 from lysates of cell membranes in BRIJ (Trop-2 [3]): precipitation of Trop-2

anti-CD9 siRNA: anti-CD9 siRNA with target sense sequence 5′ GGTAGCAAGT GCATCAAAT 3′, expressed as hairpin RNA from pSUPER vector (sense GGTAGCAAGTGCATCAAAT; antisense ATTTGATGCACTTGCTACC; listed as Mus musculus)
proliferation of MTE 4-14 cells expressing Trop-2 [4]: striking reduction | proliferation of Trop-2-negative cells [5]: essentially no impact

methyl-β-cyclodextrin
release of Trop-2 in the culture medium (Trop-2 [6]): induce the release of Trop-2 in the culture medium

B1: caveolin (other, murine, UniProt P49817 2-178, looked up)
chain: SGGKYVDSEGHLYTVPIREQGNIYKPNNKAMADEVTEKQVYDAHTKEIDLVNRDPKHLNDDVVKIDFEDVIAEPEGTHSFDGIWKASFTTFTVTKYWFYRLLSTIFGIPMALIWGIYFAILSFLHIWAVVPCIKSFLIEIQCISRVYSIYVHTFCDPLFEAIGKIFSNIRISTQKEI
notes: Lipid-raft marker used as negative control in the confocal, co-capping and footprint analyses; also called caveolin-1
binding result [7]: no binding
